Entries after “also recorded” stand apart in the source; their conditions may differ. Like-named read-outs stand apart in the source and are kept apart here.
Tests used:
[1] = system: vancomycin-resistant Enterococcus faecalis (VanA VRE, BM4166); assay: In vitro antimicrobial assay (MIC), VanA E. faecalis; type: cell-based; conditions: for antibiotic susceptibility profile of the strain: VanA E. faecalis BM 4166
Text: (§1) One day before a study was run, fresh cultures of vancomycin-sensitive Staphylococcus aureus (VSSA strain ATCC 25923), methicillin and oxacillin-resistant Staphylococcus aureus subsp. aureus (MRSA strain ATCC 43300), vancomycin-resistant Enterococcus faecalis (VanA VRE, BM4166), Enterococcus faecium (VanA VRE, ATCC BAA-2317), vancomycin-resistant Enterococcus faecalis (VanB VRE, strain ATCC 51299), Escherichia coli (ATCC 25922), Acinetobacter baumannii (ATCC BAA-1710), Pseudomonas aeruginosa (ATCC 15442), Klebsiella pneumoniae (ATCC 700603) were inoculated and grown in an orbital shaker at 37° C. in 100% Mueller-Hinton broth (VSSA, MRSA and VanB VRE), 100% brain-heart infusion broth (VanA VRE, A. baumannii and K. pneumoniae) or 100% Luria broth (E. coli and P. aeruginosa). After 24 hours, the bacterial stock solutions were serially diluted with the culture medium (10% Mueller-Hinton broth for VSSA, MRSA and VanB VRE or 10% brain-heart infusion broth for VanA VRE A. baumannii and K. pneumoniae or 10% Luria Broth for E. coli and P. aeruginosa) to achieve a turbidity equivalent to a 1:100 dilution of a 0.5 M McFarland solution. This diluted bacterial stock solution was then inoculated in a 96-well V-shaped glass coated microtiter plate, supplemented with serial diluted aliquots of the antibiotic solution in DMSO (4 μL), to achieve a total assay volume of 0.1 mL. The plate was then incubated at 37° C. for 18 hours, after which minimal inhibitory concentrations (MICs) were determined by monitoring the cell growth (observed as a pellet) in the wells.
(§2) The lowest concentration of antibiotic (in μg/mL) capable of eliminating cell growth in the wells is the reported MIC value. The reported MIC values for the vancomycin analogues were determined against vancomycin as a standard in the first well.*
(§3) [*Clinical and Laboratory Standards Institute. Methods for Dilution Antimicrobial Susceptibility Tests for Bacteria That Grow Aerobically; Approved Standard, 7th ed.; CLSI document M07-A8; Clinical and Laboratory Standards Institute: Wayne, Pa., 2009.]

[2] = system: Enterococcus faecium (VanA VRE, ATCC BAA-2317); assay: In vitro antimicrobial assay (MIC), VanA E. faecium; type: cell-based
Text: as §1, §2, §3

[3] = system: VanA VRE (E. faecalis BM 4166 and E. faecium ATCC BAA-2317); assay: Cell wall biosynthesis inhibition assay (accumulation of UDPMurNAc-pp 19); type: cell-based, Enterococcus faecalis; Enterococcus faecium; conditions: 35 μg/mL, tetracycline pretreated VanA VRE, 30 minutes, 37° C.
Text: The inhibition of bacterial cell wall synthesis was established in an assay that quantitates the accumulation of the peptidoglycan precursor UDP-N-acetyl-muramyl-depsipentapeptide (Compound 19, UDPMurNAc-pp), resulting from inhibited cell wall incorporation following antibiotic treatment. […] This procedure was reduced in scale and modified to enlist reverse-phase HPLC separation, UV detection, and calibration curve determination of the amount of isolated 19, permitting use with limited sample sizes. A larger scale isolation and full characterization of 19 provided the material needed to establish a linear calibration curve.
The bacterial suspension was heated at 100° C. for 15 minutes to release cytosolic 19. The entire supernatant was analyzed by semi-preparative reverse-phase HPLC with a single injection and the amount of 19 was quantitated with use of the calibration curve.
Cultures of vancomycin-resistant Enterococcus faecalis (VanA VRE, BM4166) and Enterococcus faecium (VanA VRE, ATCC BAA-2317) were inoculated and grown in an orbital shaker at 37° C. in 100% brain-heart infusion broth for 12 hours. The above bacterial solution was subjected to a subculture to obtain fresh mid-log phase bacterial cells (total volume of bacterial suspension=5 mL, incubation time=6 hours, OD600=0.6). […] Vancomycin analogues were added and the mixture was incubated at 37° C. for a further 30 minutes.
After the bacteria were harvested (3000 rpm, 4° C., 20 minutes), this bacterial precipitate was washed and resuspended in 5 mM glucose and 5 mM HEPES buffer (500 μL, 1:1, pH=7.2). This bacterial suspension was heated at 100° C. for 15 minutes and centrifuged (13000 rpm, 25° C., 10 minutes). […] [*****Allen et al., Antimicrob. Agents Chemother. 1996, 40(10):2356-2362]; Liu et al., J. Am. Chem. Soc. 2001, 123:9916-9917.] The amount of UDP Mur N-Ac pentapeptide (19) was quantified by use of calibration curves for E. faecalis BM4166, and for E. faecium ATCC BAA-2317 based on the area under the curve (AUC).

[4] = system: red blood cells (pig whole blood); assay: Hemolysis assay; type: cell-based; conditions: assay time extended to 24 hours
Experimental: The blood cells in pig whole blood (2 mL, Pel-Free Biologicals, non-sterile, sodium citrate) were harvested (3000 rpm, 4° C., 20 minutes), and the red blood precipitate was washed and resuspended in phosphate buffered saline (pH 7.4). This diluted red blood cell stock solution (384 μL) was incubated with the antibiotic solution in DMSO (16 μL) in a 1 mL microtube to achieve the final concentration of the test compounds. […]
The solution was diluted with phosphate buffer saline (pH 7.4, 200 μL) at 25° C. and centrifuged (3000 rpm, 4° C., 20 minutes). The supernatant (200 μL) was transferred to a microtiter plate. A positive control (0.2% vol % Triton® X-100, 100% total hemolysis) and the negative control (no antibiotic, 0% hemolysis) were prepared. A350 was measured using a microplate reader (Molecular Devices®, Max Gemini EX). The % hemolysis was determined by calculating the following equation shown below (eq. 1).
Although the differences in mammalian and bacterial cell wall composition are extensive, including the more highly anionic composition of the bacterial cell wall responsible for a preferential and differential cation binding, lysis of mammalian cell membranes (red blood cells) are potential off-target consequences of cationic compounds that impact bacterial cell membrane integrity. […]

[5] = system: vancomycin-sensitive Staphylococcus aureus (VSSA strain ATCC 25923); conditions: previously reported data; cited from earlier work
[6] = system: methicillin and oxacillin-resistant Staphylococcus aureus subsp. aureus (MRSA strain ATCC 43300); conditions: previously reported data; cited from earlier work
[7] = system: vancomycin-resistant Enterococcus faecalis (VanA VRE, BM4166); conditions: BM 4166; previously reported data; cited from earlier work
[8] = system: Enterococcus faecium (VanA VRE, ATCC BAA-2317); conditions: previously reported data; cited from earlier work
[9] = system: vancomycin-resistant Enterococcus faecalis (VanB VRE, strain ATCC 51299); conditions: previously reported data; cited from earlier work
[10] = D-Ala-D-Lac versus D-Ala-D-Ala; cited from earlier work
[11] = system: VanA VRE (E. faecalis BM 4166 and E. faecium ATCC BAA-2317); assay: Cell wall permeability assay (propidium iodide uptake); type: cell-based, Enterococcus faecalis; Enterococcus faecium; conditions: 10 μM compound
Text: The effect of the compounds on cell membrane permeability was examined by measuring cytoplasmic membrane uptake of the fluorescent probe propidium iodide in the same VanA vancomycin-resistant E. faecalis (BM 4166) and E. faecium (ATCC BAA-2317) strains. This fluorescent probe only enters cells with permeabilized cell membranes and is detected by the emission of fluorescence upon intracellular nucleic acid binding [Boulos et al., J Microbiol Methods 1999, 37(1):77-86].
Fresh, mid-log phase VanA VRE in pH 7.2 buffer at 25° C. were preincubated with propidium iodide (10 μM) for 5 minutes before the test compounds were added, monitoring the fluorescence emission at 617 nm (excitation at 535 nm) over time, both pre (5 minutes) and post (15 minutes) compound addition. Rapid and sustained increases in fluorescence intensity are observed immediately upon addition of test compounds that induce bacterial cell membrane permeability.
One day before a study was run, cultures of vancomycin-resistant Enterococcus faecalis (VanA VRE, BM4166) and Enterococcus faecium (VanA VRE, ATCC BAA-2317), were inoculated and grown in an orbital shaker at 37° C. in 100% brain-heart infusion broth for 12 hours. The above bacterial solution was subjected to a subculture to obtain fresh mid-log phase bacterial cells (total volume of bacterial suspension=7 mL, incubation time=6 hours, OD600=0.6). After the cultured bacteria were harvested (3000 rpm, 4° C., 20 minutes), the white bacterial precipitate was washed and resuspended in 5 mM glucose and 5 mM HEPES buffer (1:1, 500 μL, pH=7.2).
This bacterial suspension (130 μL) was charged into a 96-well black plate with a clear bottom (Corning 3650). The propidium iodide dye (10 μL, 150 μM DMSO solution) was added to the above suspension and the fluorescence was monitored at 25° C. for 5 minutes at 30 second intervals using a microplate reader (Molecular Devices®, Max Gemini EX) at an excitation wavelength of 535 nm and an emission wavelength of 617 nm. The test compound (150 μM, 10 μL) was added to the cell suspension and the fluorescence was monitored at 25° C. for an additional 15 minutes.

[12] = system: VanA VRE (E. faecalis BM4166 and E. faecium ATCC BAA-2317); assay: Resistance development study (serial passaging at 0.5×MIC); type: cell-based, Enterococcus faecalis; Enterococcus faecium; conditions: 0.5×MIC serial exposure, MICs monitored daily
Experimental: However, an additional and even more important feature of the expression of multiple independent mechanisms of action is a mechanism's impact on the rate at which bacterial resistance may emerge.
The MICs of the vancomycin analogues against vancomycin-resistant Enterococcus faecalis (VanA VRE, BM4166) and Enterococcus faecium (VanA VRE, ATCC BAA-2317) were determined. […] A new MIC assay was performed with the same protocol. This process was repeated for 50 passages, and the fold increase in MIC was determined at each passage. [****Pollard et al., J. Antimicrob. Chemother. 2012, 67:2665-2672.]

Row | Structure (SMILES) | Antimicrobial Activity, MIC, VanA E. faecalis ([1]; BM 4166) | antibiotic susceptibility profile of the strain [1] | Antimicrobial Activity, MIC, VanA E. faecium ([2]; ATCC BAA-2317) | antibiotic susceptibility profile of the strain ([2]; VanA E. faecium ATCC BAA-2317) | inhibition of bacterial cell wall synthesis (accumulation of 19) [3] | red blood cell hemolytic activity, extended exposure [4] | Antimicrobial Activity, MIC, sensitive S. aureus [5] | Antimicrobial Activity, MIC, MRSA S. aureus [6] | Antimicrobial Activity, MIC, VanA E. faecalis [7] | Antimicrobial Activity, MIC, VanA E. faecium [8] | Antimicrobial Activity, MIC, VanB E. faecalis [9] | reduction of binding affinity for the altered ligand [10] | MIC ([1]; Enterococcus faecalis, VRE, read-out: Antimicrobial Activity, MIC, VanA E. faecalis) | MIC ([2]; Enterococcus faecium, read-out: Antimicrobial Activity, MIC, VanA E. faecium) | induced cell membrane permeability (propidium uptake) [11] | emergence of resistance on serial passaging [12]
1 | CN[C@H](CC(C)C)C(=O)N[C@H]1C(=O)N[C@@H](CC(N)=O)C(=O)N[C@H]2C(=O)N[C@H]3C(=O)N[C@H](C(=O)N[C@H](C(=O)O)c4cc(O)cc(O)c4-c4cc3ccc4O)[C@H](O)c3ccc(c(Cl)c3)Oc3cc2cc(c3O[C@@H]2O[C@H](CO)[C@@H](O)[C@H](O)[C@H]2O[C@H]2C[C@](C)(N)[C@H](O)[C@H](C)O2)Oc2ccc(cc2Cl)[C@H]1O [Compound 1, vancomycin] | 250 µg/mL | resistant | 250 µg/mL | resistant | do not effectively inhibit bacterial cell wall synthesis | no different from the control tigecycline | 0.5 µg/mL | 0.5 µg/mL | 250 µg/mL | 250 µg/mL | 8 µg/mL | 1000 fold |  |  |  | 
2 | CCCCCCCCCCCCCC[N+](C)(C)CCCNC(=O)[C@H]1NC(=O)[C@H]2NC(=O)[C@@H](NC(=O)[C@@H]3NC(=O)[C@H](CC(N)=O)NC(=O)[C@H](NC(=O)[C@@H](CC(C)C)NC)[C@H](O)c4ccc(c(Cl)c4)Oc4cc3cc(c4OC3OC(CO)C(O)[C@H](O)[C@@H]3O[C@H]3CC(C)(N)[C@H](O)[C@H](C)O3)Oc3ccc(cc3Cl)[C@H]2O)c2ccc(O)c(c2)-c2c(O)cc(O)cc21 (stereo partly drawn) [Compound 12] |  |  |  |  |  | performed worse than the control daptomycin |  |  |  |  |  |  | 2 µg/mL | 2 µg/mL | produced pronounced, rapid cell membrane permeability | 
3 | CCCCCCCCCC(=O)N[C@@H](Cc1c[nH]c2ccccc12)C(=O)N[C@H](CC(N)=O)C(=O)N[C@@H](CC(=O)O)C(=O)N[C@@H]1C(=O)NCC(=O)N[C@@H](CCCN)C(=O)N[C@@H](CC(=O)O)C(=O)N[C@H](C)C(=O)N[C@@H](CC(=O)O)C(=O)NCC(=O)N[C@H](CO)C(=O)N[C@@H]([C@H](C)CC(=O)O)C(=O)N[C@@H](CC(=O)c2ccccc2N)C(=O)O[C@@H]1C [daptomycin] |  | sensitive |  |  |  |  |  |  |  |  |  |  |  |  |  | arises much faster and is much more pronounced; also recorded: arise much faster and was more pronounced
